# Measurements published in patent US5719278A, “Tricyclic benzazepine vasopressin antagonists” (American Cyanamid Company, priority 1996, dated 1998).
# Columns and labels:
# [1] = tested on: Vasopressin V2; test: Vasopressin V2 Antagonist Activity in Conscious Hydrated Rats; assay type: in vivo, rat; details: 10 mg/kg orally, N = 2, AVP 0.4 μg/kg intraperitoneally; for Osmolality (mOsm/kg): urine
# Protocol: Vasopressin V2 Antagonist Activity in Conscious Hyrdated Rats
# Conscious hydrated rats are treated with compounds under study from 0.1 to 100 mg/kg orally or vehicle. Two to four rats are used for each compound. One hour later, arginine vasopressin (AVP, antidiuretic hormone, ADH) dissolved in peanut oil is administered at 0.4 μg/kg intraperitoneally. Two rats in each test would not receive arginine vasopressin but only the vehicle (peanut oil) to serve as water-loading control. Twenty minutes later each rat is given 30 mL/kg of deionized water orally by gavage and is placed individually in a metabolic cage equipped with a funnel and a graduated glass cylinder to collect urine for four hours. Urine volume is measured and osmolality analyzed by use of a Fiske One-Ten osmometer (Fiske Assoc., Norwood, Mass. U.S.A.). Urinary sodium, potassium, and chloride are analyzed by use of ion-specific electrodes in a Beckman E3(Electrolyte 3) Analyzer.
# In the following results, […] and decreased osmolality relative to AVP-control indicates activity.
# [2] = biological target: T1, Rat Kidney Medullary V2 Receptors (Rattus norvegicus, UniProt Q00788); test: Binding Assay to Rat Kidney Medullary V2 Receptors; details: for IC50: Rat Kidney Medullary V2 Receptors (no asterisk)
# T1 construct: Medullary tissues from rat kidneys are dissected out; from tissue; host or cells: rat kidney medulla membranes
# T1 sequence (Q00788 whole entry): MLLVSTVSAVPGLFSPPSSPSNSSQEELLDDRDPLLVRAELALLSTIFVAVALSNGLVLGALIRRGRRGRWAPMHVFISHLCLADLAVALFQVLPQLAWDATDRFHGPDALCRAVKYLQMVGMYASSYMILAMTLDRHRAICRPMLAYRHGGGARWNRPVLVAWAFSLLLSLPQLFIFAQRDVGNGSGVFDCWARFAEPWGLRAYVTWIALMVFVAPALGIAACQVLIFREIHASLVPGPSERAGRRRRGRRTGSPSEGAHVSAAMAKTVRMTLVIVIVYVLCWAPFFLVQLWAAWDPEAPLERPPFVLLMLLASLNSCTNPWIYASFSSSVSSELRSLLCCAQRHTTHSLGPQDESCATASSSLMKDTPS
# Protocol: Binding Assay to Rat Kidney Medullary V2 Receptors
# Medullary tissues from rat kidneys are dissected out, cut into small pieces and let soak in a […] sodium chloride solution containing 1.0 mM EDTA with many changes of the liquid phase, until the solution is clear of blood. The tissue is homogenized in a 0.25M sucrose solution containing 1.0 mM EDTA and 0.1 mM PMSF using a Potter-Elvehjem homogenizer with a teflon pestle. The homogenate is filtered through several layers (4 layers) of cheese cloth. The filtrate is rehomogenized using a dounce homogenizer, with a tight fitting pestle. The final homogenate is contrifuged at 1500×g for 15 min. The nuclear pellet is discarded and the supernatant fluid recentrifuged at 40,000×g for 30 min. The resulting pellet formed contains a dark inner part with the exterior, slightly pink. The pink outer part is suspended in a small amount of 50.0 mM Tris.HCl buffer, pH 7.4. The protein content is determined by the Lowry's method (Lowry et al, J. Biol. Chem., 1953). The membrane suspension is stored at -70° C., in 50.0 mM Tris.HCl, containing 0.2% inactivated BSA and 0.1 mM PMSF in aliquots of 1.0 ml containing 10.0 mg protein per ml of suspension until use in subsequent binding experiments.
# For binding experiments, the following is added in μl volume to wells of a 96 well format of a microtiter plate: 100.0 μl of 100.0 mM Tris.HCl buffer containing 0.2% heat inactivated BSA, 10.0 mM MgCl2 and a mixture of protease inhibitors: leupeptin, 1.0 mg %; aprotinin, 1.0 mg %; 1,10-phenanthroline, 2.0 mg %; trypsin inhibitor, 10.0 mg % and 0.1 mM PMSF, 20.0 μl of [^3 H]Arginine^8, vasopressin (S.A. 75.0 Ci/mmole) at 0.8 nM and the reaction initiated by the addition of 80.0 μl of tissue membranes (200.0 μg tissue protein). The plates are left undisturbed on the bench top for 120 min. to reach equilibrium. Non-specific binding is assessed in the presence of 1.0 μM of unlabeled ligand, added in 20 μl volume. For test compounds, these are solubilized in 50% dimethylsulfoxide (DMSO) and added in 20.0 μl volume to a final incubation volume of 200 μl. Upon completion of binding, the content of each well is filtered off, using a Brandel® cell Harvester (Gaithersburg, Md.). The radioactivity trapped on the filter disk by the ligand-receptor complex is assessed by liquid scintillation counting in a Packard LS Counter, with an efficiency of 65% for tritium. The data are analyzed for IC50 values by the LUNDON-2 program for competition (LUNDON SOFTWARE, Ohio).
# [3] = biological target: T2, V1 Receptor Subtype in Human Platelet (Homo sapiens, UniProt P37288); test: Binding to Vasopressin V1 Receptor Subtype in Human Platelet Membranes
# T2 construct: from tissue; host or cells: human platelets (platelet rich plasma from Hudson Valley Blood Services)
# T2 sequence (P37288 whole entry): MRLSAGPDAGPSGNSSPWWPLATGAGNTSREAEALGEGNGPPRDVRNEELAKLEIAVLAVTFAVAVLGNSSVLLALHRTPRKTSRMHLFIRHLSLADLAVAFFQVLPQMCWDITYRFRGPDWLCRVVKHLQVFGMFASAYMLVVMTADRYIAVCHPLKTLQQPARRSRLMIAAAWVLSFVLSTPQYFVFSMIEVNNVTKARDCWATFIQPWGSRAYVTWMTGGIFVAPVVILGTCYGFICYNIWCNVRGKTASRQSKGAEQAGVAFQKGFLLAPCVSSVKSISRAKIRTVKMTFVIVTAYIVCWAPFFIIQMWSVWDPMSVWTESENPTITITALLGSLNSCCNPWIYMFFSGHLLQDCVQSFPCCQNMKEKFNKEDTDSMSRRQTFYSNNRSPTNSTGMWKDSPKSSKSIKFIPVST
# Protocol: Radioligand Binding Experiments with Human Platelet Membranes
# Platelet Source: Hudson Valley Blood Services, Westchester Medical Center, Valhalla, N.Y.
# Frozen platelet rich plasma (PRP), received from the Hudson Valley Blood Services are thawed to room temperature. The tubes containing the PRP are centrifuged at 16,000×g for 10 min. at 4° C. and the supernatant fluid discarded. The platelets resuspended in an equal volume of 50.0 mM Tris.HCl, pH 7.5 containing 120 mM NaCl and 20.0 mM EDTA. The suspension is recentrifuged at 16,000×g for 10 min. This washing step is repeated one more time. The wash is discarded and the lysed pellets homogenized in low ionic strength buffer of Tris.HCl, 5.0 mM, pH 7.5 containing 5.0 mM EDTA. The homogenate is centrifuged at 39,000×g for 10 min. The resulting pellet is resuspended in Tris.HCl buffer, 70.0 mM, pH 7.5 and recentrifuged at 39,000×g for 10 min. The final pellet is resuspended in 50.0 mM Tris.HCl buffer pH 7.4 containing 120 mM NaCl and 5.0 mM HCl to give 1.0-2.0 mg protein per ml of suspension.
# Binding to Vasopressin V1 Receptor Subtype in Human Platelet Membranes:
# In wells of a 96 well format microtiter plate, add 100 μl of 50.0 mM Tris.HCl buffer containing 0.2% BSA and a mixture of protease inhibitors (aprotinin, leupeptin etc.). Then add 20 μl of [^3 H]Ligand: (Manning or Arg^8 Vasopressin), to give final concentrations ranging from 0.01 to 10.0 nM. Initiate the binding by adding 80.0 μl of platelet suspension (approx. 100 μg protein). Mix all reagents by pipetting the mixture up and down a few times. Non-specific binding is measured in the presence of 1.0 μM of unlabeled ligand (Manning or Arg^8 Vasopressin). Let the mixture stand undisturbed at room temperature for ninety (90) min. Upon this time, rapidly filter off the incubate under vacuum suction over GF/B filters, using a Brandel® Harvester. Determine the radioactivity caught on the filter disks by the addition of liquid scintillant and counting in a liquid scintillator
# [4] = biological target: T3, oxytocin receptors (Rattus norvegicus, UniProt P70536); test: Oxytocin Receptor Binding; parameters: species or system Sprague-Dawley rat
# T3 construct: The uteri are dissected out, cleaned of fat and connective tissues; from tissue; host or cells: uterus of DES-treated female Sprague-Dawley rats
# T3 sequence (P70536 1-388): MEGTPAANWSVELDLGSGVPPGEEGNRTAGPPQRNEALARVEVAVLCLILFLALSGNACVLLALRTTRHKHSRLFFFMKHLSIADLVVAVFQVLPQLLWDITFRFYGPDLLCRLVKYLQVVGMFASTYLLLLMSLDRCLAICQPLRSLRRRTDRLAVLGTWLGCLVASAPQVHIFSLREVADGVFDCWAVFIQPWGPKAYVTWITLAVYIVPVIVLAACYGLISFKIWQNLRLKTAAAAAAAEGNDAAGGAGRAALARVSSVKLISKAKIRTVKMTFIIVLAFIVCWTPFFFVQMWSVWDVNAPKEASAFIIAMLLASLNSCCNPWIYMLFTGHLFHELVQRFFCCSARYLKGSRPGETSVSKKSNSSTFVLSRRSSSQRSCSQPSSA
# Protocol: Oxytocin Receptor Binding
# Female Sprague-Dawley rats weighing approximately 200-250 g are injected intramuscularly (i.m.) with 0.3 mg/kg of body weight of diethylstilbestrol (DES). The rats are sacrificed 18 hours later under pentobarbital anesthesia. The uteri are dissected out, cleaned of fat and connective tissues and rinsed in 50 ml of normal saline. The tissue pooled from six rats is homogenized in 50 ml of […] TriS.HCl, containing 0.5 mM dithiothreitol and 1.0 mM EDTA, adjusted to pH 7.4, using a polytron at setting 6 with three passes of 10 sec each. The homogenate is passed through two (2) layers of cheesecloth and the filtrate contrifuged at 1000×g for 10 min. The clear supernatant is removed and recentrifuged at 165,000×g for 30 min. The resulting pellet containing the oxytocin receptors is resuspended in 50.0 mM Tris.HCl containing 5.0 mM MgCl2 at pH 7.4, to give a protein concentration of 2.5 mg/ml of tissue suspension. This preparation is used in subsequent binding assays with [^3 H]Oxytocin.
# Binding of 3,5-[^3 H]Oxytocin ([^3 H]OT) to its receptors is done in microtiter plates using [^3 H]OT, at various concentrations, in an assay buffer of 50.0 mM Tris.HCl, pH 7.4 and containing 5.0 mM MgCl2, and a mixture of protease inhibitors: BSA, 0.1 mg; aprotinin, 1.0 mg; 1,10-phenanthroline, 2.0 mg; […], 10.0 mg; and PMSF, 0.3 mg per 100 ml of buffer solution. Non-specific binding is determined in the presence of 1.0 uM unlabeled OT. The binding reaction is terminated after 60 min., at 22° C., by rapid filtration through glass fiber filters using a Brandel® cell harvester (Biomedical Research and Development Laboratories, Inc., Gaithersburg, Md.). Competition experiments are conducted at equilibrium using 1.0 nM [^3 H]OT and varying the concentration of the displacing agents. The concentrations of agent displacing 50% of [^3 H]OT at its sites (IC50) are calculated by a computer assisted LUNDON-2 program (LUNDON SOFTWARE INC., Ohio, U.S.A.).
structure (smiles),measurement,setting,value
"O=C(Nc1ccc(C(=O)N2CCc3c[nH]nc3-c3ncccc32)cn1)c1ccccc1-c1ccccc1 [Example 368, N-[5-[(4,5-Dihydro[3,4-d]pyrido[3,2-b]azepin-6(1H)-yl)carbonyl]-2-pyridinyl][1,1'-biphenyl]-2-carboxamide]",Urine Vol. (ml/4 hrs.),[1],20.3 ml/4 hrs.
same,Osmolality (mOsm/kg),[1],371 mOsm/kg
"O=C(Nc1ccc(C(=O)N2CCc3cn[nH]c3-c3sccc32)c(Cl)c1)c1cc(Cl)ccc1F [Example 4, N-[4-[(4,5-Dihydropyrazolo[3,4-d]thieno[3,2-b]azepin-6(1H)-yl)carbonyl]-3-chlorophenyl]-5-chloro-2-fluorobenzamide]",IC50,[2],0.036 µM
"O=C(Nc1ccc(C(=O)N2CCc3cn[nH]c3-c3ncccc32)c(Cl)c1)c1ccccc1-c1ccccc1 [Example 366, N-[4-[(4,5-Dihydropyrazolo[3,4-d]pyrido[3,2-b]azepin-6(1H)-yl)carbonyl]-3-chlorophenyl][1,1'-biphenyl]-2-carboxamide]",Urine Vol. (ml/4 hrs.),[1],17.8 ml/4 hrs.
same,Osmolality (mOsm/kg),[1],431 mOsm/kg
"O=C(c1ccc(-c2ccccc2)cc1)N1CCc2cn[nH]c2-c2ncccc21 [Example 364, 6-([1,1'-Biphenyl]-4-ylcarbonyl)-1,4,5,6-tetrahydropyrazolo[3,4-d]pyrido[3,2-b]azepine]",inhibition at 10 µM,"[3]; 1.5 h, *Human Platelet V1, at 10 μM",77%
same,inhibition at 1 µM,"[2]; Rat Kidney Medullary V2, at 1 μM",17%
"Cc1ccccc1C(=O)Nc1ccc(C(=O)N2CCc3c[nH]nc3-c3sccc32)cc1 [Example 7, N-[4-[[4,5-Dihydropyrazolo[3,4-d]thieno[3,2-b]azepin-6(2H)-yl]carbonyl]phenyl]-2-methylbenzamide]",inhibition at 10 µM,[4],65%
same,Urine Vol. (ml/4 hrs.),[1],20.8 ml/4 hrs.
same,Osmolality (mOsm/kg),[1],322 mOsm/kg
Cc1ccccc1C(=O)Nc1ccc(C(=O)N2CCc3cn(C)nc3-c3sccc32)cc1 [Example 361],IC50,"[4]; 1.0 nM [^3 H]OT, 60 min., 22° C.",6400 nM
same,inhibition at 10 µM,[4],57%
"Cc1ccc(F)cc1C(=O)Nc1ccc(C(=O)N2CCc3cn[nH]c3-c3cccnc32)cc1 [Example 16, N-[4-[(4,5-Dihydropyrazolo[3,4-d]pyrido[2,3-b]azepin-6(1H)-yl)carbonyl]phenyl]-5-fluoro-2-methylbenzamide]",IC50,[3]; *Binding to V1 Receptor Subtype in Human Platelet,3.3 µM
same,IC50,[2],0.55 µM
"Cc1ccc(F)cc1C(=O)Nc1ccc(C(=O)N2CCc3c[nH]nc3-c3sccc32)c(Cl)c1 [Example 3, N-[4-[(4,5-Dihydropyrazolo[3,4]thieno[3,2-b]azepin-6-(1H)-yl)carbonyl]-3-chlorophenyl]-5-fluoro-2-methylbenzamide]",IC50,[2],0.0061 µM
"Cn1cc2c(n1)-c1sccc1N(C(=O)c1ccc(NC(=O)c3ccc(Cl)cc3Cl)cc1)CC2 [Example 5, N-[4-[[4,5-Dihydro-2-methylpyrazolo[3,4-d]thieno[3,2-b]-azepin-6-(2H)-yl]carbonyl]phenyl]2,4-dichlorobenzamide]",inhibition at 10 µM,[4],47%
